According to ChEMBL document CHEMBL5715954, “Silencing c-Myc translation as a therapeutic strategy through targeting PI3Kδ and CK1ε in hematological malignancies” (Blood, 2017):

Key:
Design in all cases: scale not given: the % may be the effect or the level left
[1] = target: Protein kinase C beta type (Homo sapiens) (UniProt P05771); experiment: Inhibition of human PKCb2 assessed as enzyme activity at 1 uM using ERMRPRKRQGSVRRRV as substrate preincubated for 20 mins followed by [gamma-33P]-ATP addition and measured after 120 mins by radiometric Hot-SpotSM Kinase assay relative to control
[2] = target: T1, Myosin light chain kinase family member 4 (Homo sapiens) (UniProt Q86YV6); experiment: Inhibition of human MYLK4 assessed as enzyme activity at 1 uM using KKRPQRRYSNVF as substrate preincubated for 20 mins followed by [gamma-33P]-ATP addition and measured after 120 mins by radiometric Hot-SpotSM Kinase assay relative to control
T1 sequence (whole entry): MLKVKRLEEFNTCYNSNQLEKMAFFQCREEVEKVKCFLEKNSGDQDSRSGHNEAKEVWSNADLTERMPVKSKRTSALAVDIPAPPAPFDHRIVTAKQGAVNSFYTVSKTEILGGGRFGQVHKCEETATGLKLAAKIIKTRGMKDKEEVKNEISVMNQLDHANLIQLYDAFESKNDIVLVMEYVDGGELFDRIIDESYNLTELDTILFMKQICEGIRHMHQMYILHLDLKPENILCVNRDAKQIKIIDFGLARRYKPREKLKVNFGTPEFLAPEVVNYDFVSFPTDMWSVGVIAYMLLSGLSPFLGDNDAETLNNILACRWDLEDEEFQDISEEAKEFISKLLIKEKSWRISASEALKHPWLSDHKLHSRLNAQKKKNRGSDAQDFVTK

[3] = target: Serine/threonine-protein kinase PAK 1 (Homo sapiens) (UniProt Q13153); experiment: Inhibition of human PAK1 assessed as enzyme activity at 1 uM using RRRLSFAEPG as substrate preincubated for 20 mins followed by [gamma-33P]-ATP addition and measured after 120 mins by radiometric Hot-SpotSM Kinase assay relative to control
[4] = target: T2, Serine/threonine-protein kinase ULK1 (Homo sapiens) (UniProt O75385); experiment: Inhibition of human ULK1 assessed as enzyme activity at 1 uM using myelin basic protein as substrate preincubated for 20 mins followed by [gamma-33P]-ATP addition and measured after 120 mins by radiometric Hot-SpotSM Kinase assay relative to control
T2 sequence (whole entry): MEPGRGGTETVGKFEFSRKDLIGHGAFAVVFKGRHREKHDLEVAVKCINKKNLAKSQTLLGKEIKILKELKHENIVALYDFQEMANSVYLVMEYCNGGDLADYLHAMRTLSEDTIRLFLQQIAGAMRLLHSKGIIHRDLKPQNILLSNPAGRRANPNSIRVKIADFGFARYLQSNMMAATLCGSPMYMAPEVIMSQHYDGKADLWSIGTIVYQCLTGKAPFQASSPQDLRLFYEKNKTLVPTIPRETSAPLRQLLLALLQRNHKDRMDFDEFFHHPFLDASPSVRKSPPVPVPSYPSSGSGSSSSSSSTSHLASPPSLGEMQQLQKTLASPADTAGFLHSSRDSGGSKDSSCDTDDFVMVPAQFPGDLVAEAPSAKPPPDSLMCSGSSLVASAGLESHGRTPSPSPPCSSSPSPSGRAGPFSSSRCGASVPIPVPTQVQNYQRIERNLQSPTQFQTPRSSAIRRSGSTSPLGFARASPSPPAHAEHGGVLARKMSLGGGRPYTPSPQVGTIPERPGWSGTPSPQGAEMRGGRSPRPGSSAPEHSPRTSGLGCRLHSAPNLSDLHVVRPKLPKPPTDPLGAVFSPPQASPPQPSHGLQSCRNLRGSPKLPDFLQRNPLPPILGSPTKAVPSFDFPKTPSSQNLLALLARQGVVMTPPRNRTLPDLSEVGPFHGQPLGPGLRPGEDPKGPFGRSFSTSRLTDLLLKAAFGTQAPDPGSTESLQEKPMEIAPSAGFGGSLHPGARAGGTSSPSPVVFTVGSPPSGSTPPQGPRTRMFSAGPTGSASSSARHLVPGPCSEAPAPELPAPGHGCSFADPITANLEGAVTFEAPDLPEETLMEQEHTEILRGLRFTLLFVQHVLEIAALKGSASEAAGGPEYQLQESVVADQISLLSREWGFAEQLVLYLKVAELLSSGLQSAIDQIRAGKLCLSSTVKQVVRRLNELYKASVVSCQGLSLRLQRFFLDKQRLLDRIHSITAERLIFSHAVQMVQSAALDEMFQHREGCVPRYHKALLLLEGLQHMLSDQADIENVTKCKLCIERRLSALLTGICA

[5] = target: NT-3 growth factor receptor (Homo sapiens) (UniProt Q16288); experiment: Inhibition of human TRKC assessed as enzyme activity at 1 uM using poly[Glu:Tyr] (4:1) as substrate preincubated for 20 mins followed by [gamma-33P]-ATP addition and measured after 120 mins by radiometric Hot-SpotSM Kinase assay relative to control
[6] = target: Receptor-type tyrosine-protein kinase FLT3 (Homo sapiens) (UniProt P36888); experiment: Inhibition of human FLT3 assessed as enzyme activity at 1 uM using EAIYAAPFAKKK as substrate preincubated for 20 mins followed by [gamma-33P]-ATP addition and measured after 120 mins by radiometric Hot-SpotSM Kinase assay relative to control
[7] = target: T3, Serine/threonine-protein kinase Nek2 (Homo sapiens) (UniProt P51955); experiment: Inhibition of human NEK2 assessed as enzyme activity at 1 uM using myelin basic protein as substrate preincubated for 20 mins followed by [gamma-33P]-ATP addition and measured after 120 mins by radiometric Hot-SpotSM Kinase assay relative to control
T3 sequence (whole entry): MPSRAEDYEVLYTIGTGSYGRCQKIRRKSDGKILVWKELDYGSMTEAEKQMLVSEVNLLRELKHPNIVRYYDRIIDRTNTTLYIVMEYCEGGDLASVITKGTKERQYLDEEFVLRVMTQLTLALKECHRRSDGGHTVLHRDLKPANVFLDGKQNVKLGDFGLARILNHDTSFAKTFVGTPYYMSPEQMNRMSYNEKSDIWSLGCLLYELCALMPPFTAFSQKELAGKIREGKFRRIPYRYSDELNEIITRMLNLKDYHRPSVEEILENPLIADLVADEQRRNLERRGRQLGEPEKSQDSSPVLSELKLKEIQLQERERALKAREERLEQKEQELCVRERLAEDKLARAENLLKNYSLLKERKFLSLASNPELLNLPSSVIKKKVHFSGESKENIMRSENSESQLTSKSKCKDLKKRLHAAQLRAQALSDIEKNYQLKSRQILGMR

[8] = target: Tyrosine-protein kinase Fyn (Homo sapiens) (UniProt P06241); experiment: Inhibition of human FYN assessed as enzyme activity at 1 uM using poly[Glu:Tyr] (4:1) as substrate preincubated for 20 mins followed by [gamma-33P]-ATP addition and measured after 120 mins by radiometric Hot-SpotSM Kinase assay relative to control
Tyrosine-protein kinase Fyn (Homo sapiens), sequence (P06241 2-537 limits assumed): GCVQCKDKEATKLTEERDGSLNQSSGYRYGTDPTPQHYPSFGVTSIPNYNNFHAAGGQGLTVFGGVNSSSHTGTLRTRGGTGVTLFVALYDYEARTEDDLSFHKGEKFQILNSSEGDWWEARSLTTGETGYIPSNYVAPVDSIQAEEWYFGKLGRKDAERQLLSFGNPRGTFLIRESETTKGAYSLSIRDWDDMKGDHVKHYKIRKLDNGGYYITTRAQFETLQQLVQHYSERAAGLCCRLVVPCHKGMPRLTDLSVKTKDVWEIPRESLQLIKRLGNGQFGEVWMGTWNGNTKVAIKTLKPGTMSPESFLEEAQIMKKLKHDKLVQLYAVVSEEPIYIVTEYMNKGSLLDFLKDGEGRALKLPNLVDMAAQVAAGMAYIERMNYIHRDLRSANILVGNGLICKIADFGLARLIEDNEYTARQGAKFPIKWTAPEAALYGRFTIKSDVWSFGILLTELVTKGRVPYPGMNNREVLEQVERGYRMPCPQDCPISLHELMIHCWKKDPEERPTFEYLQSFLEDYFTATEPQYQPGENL

Serine/threonine-protein kinase PAK 1 (Homo sapiens), sequence (Q13153 whole entry): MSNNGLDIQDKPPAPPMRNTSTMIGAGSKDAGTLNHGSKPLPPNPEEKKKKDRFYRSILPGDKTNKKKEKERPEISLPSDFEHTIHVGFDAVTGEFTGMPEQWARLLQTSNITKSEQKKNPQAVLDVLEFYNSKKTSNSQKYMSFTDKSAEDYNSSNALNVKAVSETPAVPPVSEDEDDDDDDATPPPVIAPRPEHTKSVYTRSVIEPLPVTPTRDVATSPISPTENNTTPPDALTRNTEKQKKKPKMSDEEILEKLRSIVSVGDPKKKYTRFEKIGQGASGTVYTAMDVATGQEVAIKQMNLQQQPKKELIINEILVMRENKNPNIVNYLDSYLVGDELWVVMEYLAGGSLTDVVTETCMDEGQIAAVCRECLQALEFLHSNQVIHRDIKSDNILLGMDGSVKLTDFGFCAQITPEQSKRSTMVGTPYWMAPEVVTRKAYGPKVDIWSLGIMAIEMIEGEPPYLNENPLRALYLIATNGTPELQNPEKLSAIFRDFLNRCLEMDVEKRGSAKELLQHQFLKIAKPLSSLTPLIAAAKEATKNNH
Protein kinase C beta type (Homo sapiens), sequence (P05771 2-671 limits assumed): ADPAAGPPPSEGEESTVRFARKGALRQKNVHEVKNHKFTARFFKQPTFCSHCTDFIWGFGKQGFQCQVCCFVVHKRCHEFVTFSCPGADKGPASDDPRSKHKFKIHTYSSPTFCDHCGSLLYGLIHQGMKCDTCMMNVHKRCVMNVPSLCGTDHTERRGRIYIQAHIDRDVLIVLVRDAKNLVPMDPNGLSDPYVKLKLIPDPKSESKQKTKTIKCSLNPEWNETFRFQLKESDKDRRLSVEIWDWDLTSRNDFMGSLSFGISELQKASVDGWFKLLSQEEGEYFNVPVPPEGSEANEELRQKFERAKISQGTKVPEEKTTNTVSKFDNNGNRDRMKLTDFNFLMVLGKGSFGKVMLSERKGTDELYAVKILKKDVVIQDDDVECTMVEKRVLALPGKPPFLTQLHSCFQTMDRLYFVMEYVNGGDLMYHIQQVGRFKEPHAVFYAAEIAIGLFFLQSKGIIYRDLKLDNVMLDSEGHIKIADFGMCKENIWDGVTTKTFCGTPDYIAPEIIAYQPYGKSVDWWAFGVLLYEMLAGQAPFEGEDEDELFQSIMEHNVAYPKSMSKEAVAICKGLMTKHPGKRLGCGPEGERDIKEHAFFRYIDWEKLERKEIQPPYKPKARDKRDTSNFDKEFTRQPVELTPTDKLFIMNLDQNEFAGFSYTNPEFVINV
Receptor-type tyrosine-protein kinase FLT3 (Homo sapiens), sequence (P36888 whole entry): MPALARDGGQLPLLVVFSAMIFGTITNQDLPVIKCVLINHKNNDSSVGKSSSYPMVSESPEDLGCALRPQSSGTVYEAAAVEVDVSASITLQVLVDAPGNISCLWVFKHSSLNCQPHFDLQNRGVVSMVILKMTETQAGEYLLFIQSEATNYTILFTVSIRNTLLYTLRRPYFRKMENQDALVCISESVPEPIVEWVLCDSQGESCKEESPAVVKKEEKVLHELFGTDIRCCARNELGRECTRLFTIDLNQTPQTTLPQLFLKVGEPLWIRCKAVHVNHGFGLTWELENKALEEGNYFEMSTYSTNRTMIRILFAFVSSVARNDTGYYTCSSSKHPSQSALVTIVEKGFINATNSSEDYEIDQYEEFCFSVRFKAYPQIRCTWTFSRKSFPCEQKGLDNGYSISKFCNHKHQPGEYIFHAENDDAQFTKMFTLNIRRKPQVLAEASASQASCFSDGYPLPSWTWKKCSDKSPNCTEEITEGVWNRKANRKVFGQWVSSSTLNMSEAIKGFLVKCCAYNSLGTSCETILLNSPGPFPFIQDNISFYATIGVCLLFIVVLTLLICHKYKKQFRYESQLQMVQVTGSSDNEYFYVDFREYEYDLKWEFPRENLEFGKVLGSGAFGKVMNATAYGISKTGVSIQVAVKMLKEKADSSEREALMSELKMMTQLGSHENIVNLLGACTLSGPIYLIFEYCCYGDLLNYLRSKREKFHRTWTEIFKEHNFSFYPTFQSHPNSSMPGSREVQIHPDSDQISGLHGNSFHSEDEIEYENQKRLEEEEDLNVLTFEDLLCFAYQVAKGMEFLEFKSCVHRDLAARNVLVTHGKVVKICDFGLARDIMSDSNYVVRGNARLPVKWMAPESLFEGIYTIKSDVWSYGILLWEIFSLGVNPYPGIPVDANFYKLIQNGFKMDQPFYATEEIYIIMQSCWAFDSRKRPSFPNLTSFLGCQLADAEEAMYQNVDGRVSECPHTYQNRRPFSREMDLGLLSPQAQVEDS
NT-3 growth factor receptor (Homo sapiens), sequence (Q16288 32-839 limits assumed): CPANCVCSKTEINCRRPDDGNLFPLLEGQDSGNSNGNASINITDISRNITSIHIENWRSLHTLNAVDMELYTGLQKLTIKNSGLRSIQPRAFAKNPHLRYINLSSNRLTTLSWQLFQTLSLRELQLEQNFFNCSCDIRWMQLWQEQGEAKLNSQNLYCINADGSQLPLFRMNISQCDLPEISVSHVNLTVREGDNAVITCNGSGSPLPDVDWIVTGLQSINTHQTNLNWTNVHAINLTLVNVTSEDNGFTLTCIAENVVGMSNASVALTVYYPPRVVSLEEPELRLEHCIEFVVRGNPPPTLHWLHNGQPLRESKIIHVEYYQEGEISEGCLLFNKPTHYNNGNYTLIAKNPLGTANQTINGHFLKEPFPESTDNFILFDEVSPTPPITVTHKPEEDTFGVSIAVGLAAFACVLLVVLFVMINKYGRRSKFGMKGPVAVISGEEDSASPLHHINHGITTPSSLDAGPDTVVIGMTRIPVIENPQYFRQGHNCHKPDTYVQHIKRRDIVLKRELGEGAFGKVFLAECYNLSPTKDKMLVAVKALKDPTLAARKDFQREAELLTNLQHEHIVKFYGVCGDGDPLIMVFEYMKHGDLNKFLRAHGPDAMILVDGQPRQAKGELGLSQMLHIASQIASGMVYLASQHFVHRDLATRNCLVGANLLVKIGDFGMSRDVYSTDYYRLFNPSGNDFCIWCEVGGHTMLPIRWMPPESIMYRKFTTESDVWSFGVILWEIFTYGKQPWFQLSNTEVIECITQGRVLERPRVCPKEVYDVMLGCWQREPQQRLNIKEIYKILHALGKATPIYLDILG

| Structure (SMILES) | Activity [1] [%] | Activity [2] [%] | Activity [3] [%] | Activity [4] [%] | Activity [5] [%] | Activity [6] [%] | Activity [7] [%] | Activity [8] [%] |
| --- | --- | --- | --- | --- | --- | --- | --- | --- |
| C[C@H](Nc1ncnc2nc[nH]c12)c1cc2cccc(Cl)c2c(=O)n1-c1ccccc1 | 93.9 | 93 | 97.5 | 111 | 91 | 101 | 110 | 103 |
| CC[C@H](Nc1ncnc2[nH]cnc12)c1nc2cccc(F)c2c(=O)n1-c1ccccc1 | 91 | 90.9 | 98.7 | 96.9 | 89.6 | 99.3 | 98 | 100 |
| CC(C)Oc1ccc(-c2nn([C@@H](C)c3oc4ccc(F)cc4c(=O)c3-c3cccc(F)c3)c3ncnc(N)c23)cc1F [UMBRALISIB] | 91.3 | 92.3 | 98.2 | 100 | 88.7 | 95.5 | 101 | 99.7 |
